{"source": "patent US20090012152A1", "about": "“Use of Tetramic Acid Derivatives for Controlling Insects from the Genus of the Plane Lice (Sternorrhyncha)” (Bayer CropScience Aktiengesellschaft, priority 2005, published 2009)", "assay_type_in_all_cases": "in vivo", "key": {"Bemisia tabaci": {"system": "Bemisia tabaci", "assay": "Example 32: bell peppers treated against Bemisia tabaci", "conditions": "larvae on leaves, % a.i.: imidacloprid 0.02, I-9, I-2, I-11 0.0144", "description": "In three replications, plots of a size of 10 m^2 with bell peppers of the cultivar “Italiano” are treated against Bemisia tabaci. The application is carried out using a motor-operated knapsack sprayer. Here, the active compounds Example (I-9) (240 SC), Example (I-2) (60 SC) and Example (I-11) (60 SC) and the commercial standard imidacloprid (200 SL) are applied at the stated application rates. Three applications at an interval of 14 or 15 days are carried out, at an application rate of 1000 or 1100 l of water/ha.\nEvaluation is carried out 7, 14 and 22 days after the second treatment by rating the kill of the animals (larvae) on the leaves."}, "Bemisia argentifolii": {"system": "Bemisia argentifolii", "assay": "Example 35: aubergines (F 100) treated against Bemisia argentifolii", "conditions": "7 d after last of three treatments, nymphs on leaves, % a.i.: imidacloprid 0.014, I-9, I-2, I-11 0.0144", "description": "In three replications, plots of a size of 10 m^2 with aubergines of the cultivar “F 100” are treated against Bemisia argentifolii. The application is carried out using a knapsack sprayer operated with pressurized air. Here, the active compounds Example (I-9) (60 SC), Example (I-2) (60 SC) and Example (I-11) (60 SC) and the commercial standard imidacloprid (70 WG) are tested at the stated application rates. Three applications are carried out, at an interval or 7 or 8 days. The application rate is 1000 l of water/ha.\nEvaluation is carried out 7 days after the last treatment by rating the kill of the nymphs on the leaves."}, "Macrosiphum euphorbiae": {"system": "Macrosiphum euphorbiae", "assay": "Example 43: aubergines treated against Macrosiphum euphorbiae", "conditions": "nymphs on leaves, % a.i.: imidacloprid 0.014, I-9, I-2, I-11 0.0144", "description": "In three replications, plots of a size of 10 m^2 with aubergines of the cultivar “F 100” are treated against Macrosiphum euphorbiae. The application is carried out using a knapsack sprayer operated with pressurized air. Here, the active compounds Example (I-9) (60 SC), Example (I-2) (60 SC) and Example (I-11) (60 SC) and the commercial standard imidacloprid (70 WG) are tested at the stated application rates. Three applications are carried out, at an interval of 7 or 8 days. The application rate is 1000 l of water/ha.\nEvaluation is carried out 7 and 14 days after the second treatment by rating the kill of the nymphs on the leaves."}, "Myzus persicae": {"system": "Myzus persicae", "assay": "Example 50: tomatoes treated against Myzus persicae", "conditions": "nymphs on leaves, g a.i./ha: acetamiprid 50, I-9 36, I-4 48", "description": "In two replications, plots of a size of about 43 m^2 with tomatoes of the cultivar “Yaqui” are treated against Myzus persicae. The application is carried out using a motor-operated knapsack sprayer. Here, the active compounds Example (I-9) (240 SC) and Example (I-4) (240 SC), in a tank mix with 0.1% a.i. of rapeseed oil methyl ester (500 EW), and the standard acetamiprid (20 WP) are applied at the stated application rates. The application rate is 208 l of water/ha.\nEvaluation is carried out 3 and 10 days after the treatment by rating the kill of the nymphs on the leaves."}, "Pulvinaria aurantii": {"system": "Pulvinaria aurantii", "assay": "Example 11: satsuma trees treated against Pulvinaria aurantii", "conditions": "41 days after treatment; live animals counted, Henderson and Tilton; satsuma tree; % a.i.: buprofezin 0.025, I-4 0.0144", "description": "In three replications, in each case one about 4-year-old satsuma tree of the cultivar “Nankan 20” is treated against Pulvinaria aurantii. Here, the active compound Example (I-4) (240 SC) in a tank mix with 0.2% of rapeseed oil methyl ester (500 EW) at the stated application rate is tested against the commercial standard buprofezin at the stated application rate. The application is carried out using a motor-operated knapsack sprayer. Here, each plant is treated with 400 ml of spray liquor.\n(§1) Evaluation is carried out before and 41 days after the treatment by counting the live animals. The efficacy in percent is then calculated according to Henderson and Tilton."}, "Ceroplastes rubens": {"system": "Ceroplastes rubens", "assay": "Example 12: satsuma trees treated against Ceroplastes rubens", "conditions": "41 days after treatment; live animals counted, Henderson and Tilton; satsuma tree; % a.i.: buprofezin 0.025, I-4 0.0072", "description": "In three replications, in each case one about 4-year-old satsuma tree of the cultivar “Nankan 20” is treated against Ceroplastes rubens. Here, the active compound Example (I-4) (240 SC) in a tank mix with 0.1% of rapeseed oil methyl ester (500 EW) at the stated application rate is tested against the commercial standard buprofezin (25 WP) at the stated application rate. The application is carried out using a motor-operated knapsack sprayer. Here, treatment is carried out using an application rate of 400 l of water/ha.\nas §1"}, "Saissetia oleae [1]": {"system": "Saissetia oleae", "assay": "Example 13: orange trees treated against Saissetia oleae", "conditions": "nymphs on leaves, g a.i./ha/m crown height: buprofezin 500, I-4 72, I-8 30", "description": "In three replications, in each case two about 8-year-old orange trees are treated against Saissetia oleae. Here, the active compounds Example (I-4) (240 SC) and Example (I-8) (250 SC) in a tank mix with 0.2% a.i. of rapeseed oil methyl ester (500 EW) at the stated application rate are tested against the commercial standard buprofezin in a tank mix with 0.4% a.i. of Oliocin (800 EW) at the stated application rate. The application is carried out using a motor-operated knapsack sprayer. The application rate is 3000 l of water/ha. Two treatments are carried out, at an interval of 29 days.\nEvaluation is carried out 24 and 44 days after the last treatment by rating the kill of the nymphs on the leaves."}, "[2]": {"system": "Selenaspidius articulatus", "assay": "Example 19: orange trees treated against Selenaspidius articulatus", "conditions": "100 d after treatment, on leaves, % a.i.: methidathion 0.05, I-9 0.0288, I-4 0.0144", "description": "In three replications, 3-year-old orange trees of the cultivar “Pera natal” are treated against Selenaspidius articulatus. The application is carried out using a motor-operated knapsack sprayer. Here, the active compounds Example (I-9) (240 SC) and Example (I-4) (240 SC) at the stated application rate are tested against the standard methidathion (400 EC) in the stated amounts, applied once. The application rate is 3.3 l of water per tree.\nEvaluation is carried out 100 days after the treatment by rating the kill on the leaves."}, "Orthezia praelonga": {"system": "Orthezia praelonga", "assay": "Example 25: orange trees treated against Orthezia praelonga", "conditions": "population on leaves, % a.i.: methidathion 0.05, I-4 0.0144, I-9 0.0144", "description": "In two replications, two about 7-year-old orange trees of the cultivar “Pera Rio” are treated against Orthezia praelonga. Here, the active compounds Example (I-4) (240 SC) and Example (I-9) (240 SC), in a tank mix with 0.1% a.i. of Renex, are tested against the commercial standard Methidathion (400 EC), at the stated application rates. The application is carried out using a knapsack sprayer operated with pressurized air. Evaluation is carried out 6 and 16 days after the treatment by rating the kill of the population on the leaves."}, "Saissetia oleae [3]": {"system": "Saissetia oleae", "assay": "Example 14: orange trees (Navelina) treated against Saissetia oleae", "conditions": "120 d after treatment, kill on branches, % a.i.: Dursban 0.096, I-4 0.012, I-9 0.0054, pyriproxyfen 0.005", "description": "In three replications, orange trees of the cultivar “Navelina” are treated against Saissetia oleae. Here, the active compounds Example (I-4) (240 SC) and Example (I-9) (240 SC) in a tank mix with 0.1% of rapeseed oil methyl ester (500 EW) at the stated application rate are tested against the commercial standards Dursban (480 EC) and pyriproxyfen (100 EC) at the stated application rate. The application is carried out using a motor-operated knapsack sprayer. The application rate is 3200 l of water/ha.\nEvaluation is carried out 120 days after the treatment by rating the kill of the animals on the branches."}, "Lepidosaphes beckii": {"system": "Lepidosaphes beckii", "assay": "Example 18: citrus trees treated against Lepidosaphes beckii", "conditions": "140 days after treatment, larvae on fruits, g a.i./ha/m crown height: pyriproxyfen 50, I-4 48", "description": "In three replications, in plots of a size of about 20 m^2, citrus trees of the cultivar “Oro Nules” are treated against Lepidosaphes beckii. The application is carried out using a high-pressure sprayer. Here, the active compound Example (I-4) (240 SC) in a tank mix with 0.1% a.i. of rapeseed oil methyl ester (500 EW) is tested against the commercial standard pyriproxyfen (100 EC), at the stated application rates. The application rate is 2500 l of water/ha.\nEvaluation is carried out 140 days after the treatment by rating the kill of the larvae on the fruits."}, "Parlatoria pergandei": {"system": "Parlatoria pergandei", "assay": "Example 27 / 18a: orange trees treated against Parlatoria pergandei", "conditions": "73 d after last of two treatments, on fruits, % a.i.: pyriproxyfen 0.005, I-9 0.0096", "description": "The evaluation for Example 18a against Parlatoria pergandei is carried out as part of the test as described in Example 27 and is listed separately in Example 27.\n(§2) In three replications, orange trees of the cultivar “Navelina” are treated against Parlatoria pergandei and Pseudococcus citri. Two applications are carried out at an interval of 77 days using a motor-operated knapsack sprayer. Here, the active compound Example (I-9) (240 SC), in a tank mix with 0.1% a.i. of rapeseed oil methyl ester (500 EW), at the stated amount, is tested against the commercial standard pyriproxyfen (100 EC), at the stated amounts. The application rate is 3000 l of water/ha.\n(§3) Evaluation is carried out 56 days or 73 days after the last treatment by rating the kill in percent on the fruits."}, "Pseudococcus citri": {"system": "Pseudococcus citri", "assay": "Example 27: orange trees treated against Pseudococcus citri", "conditions": "56 d after last of two treatments, on fruits, % a.i.: pyriproxyfen 0.005, I-9 0.0096", "description": "as §2, §3"}}, "data": [{"smiles": "CCCC(=O)OC1=C(c2cc(C)c(C)cc2C)C(=O)NC12CCC(OCC)CC2", "note": "(stereo not shown) [Example (I-11)]", "values": [{"measurement": "Kill (%) 7 d", "setting": "Bemisia tabaci; 7 d after second treatment", "result": 85.4, "unit": "%"}, {"measurement": "Kill (%) 14 d", "setting": "Bemisia tabaci; 14 d after second treatment", "result": 93.3, "unit": "%"}, {"measurement": "Kill (%) 22 d", "setting": "Bemisia tabaci; 22 d after second treatment", "result": 91.3, "unit": "%"}, {"measurement": "Kill (%) 7 d", "setting": "Bemisia argentifolii", "result": 94, "unit": "%"}, {"measurement": "Kill (%) 7 d", "setting": "Macrosiphum euphorbiae; 7 d after second treatment", "result": 98, "unit": "%"}, {"measurement": "Kill (%) 14 d", "setting": "Macrosiphum euphorbiae; 14 d after second treatment", "result": 99, "unit": "%"}]}, {"smiles": "C/C(=N\\C#N)N(C)Cc1ccc(Cl)nc1", "note": "[acetamiprid, reference compound]", "values": [{"measurement": "Kill (%) 3 d", "setting": "Myzus persicae; 3 d after treatment", "result": 78.7, "unit": "%"}, {"measurement": "Kill (%) 10 d", "setting": "Myzus persicae; 10 d after treatment", "result": 73.5, "unit": "%"}]}, {"smiles": "CC(C)N1C(=O)N(c2ccccc2)CS/C1=N\\C(C)(C)C", "note": "[buprofezin, reference compound]", "values": [{"measurement": "Effect (%)", "setting": "Pulvinaria aurantii", "result": 68, "unit": "%"}, {"measurement": "Effect (%)", "setting": "Ceroplastes rubens", "result": 50, "unit": "%"}, {"measurement": "Kill (%) 24 d", "setting": "Saissetia oleae [1]; 24 d after last of two treatments", "result": 33.5, "unit": "%"}, {"measurement": "Kill (%) 44 d", "setting": "Saissetia oleae [1]; 44 d after last of two treatments", "result": 50.5, "unit": "%"}]}, {"smiles": "COc1nn(CSP(=S)(OC)OC)c(=O)s1", "note": "[methidathion, reference compound]", "values": [{"measurement": "Kill (%) 100 d", "setting": "[2]", "result": 77, "unit": "%"}, {"measurement": "Kill (%) 6 d", "setting": "Orthezia praelonga; 6 d after treatment", "result": 91, "unit": "%"}, {"measurement": "Kill (%) 16 d", "setting": "Orthezia praelonga; 16 d after treatment", "result": 61, "unit": "%"}]}, {"smiles": "CC(COc1ccc(Oc2ccccc2)cc1)Oc1ccccn1", "note": "(stereo not shown) [pyriproxyfen, reference compound]", "values": [{"measurement": "Effect (%) 120 d", "setting": "Saissetia oleae [3]", "result": 100, "unit": "%"}, {"measurement": "Kill (%) 140 days", "setting": "Lepidosaphes beckii", "result": 100, "unit": "%"}, {"measurement": "Kill (%) 73 d", "setting": "Parlatoria pergandei", "result": 97.5, "unit": "%"}, {"measurement": "Kill (%) 56 d", "setting": "Pseudococcus citri", "result": 28.8, "unit": "%"}]}]}
